For this assay, the target named is T1, CXCR7 (Homo sapiens, UniProt P25106).
T1 construct: host or cells: CHO-K1 (PathHunter CHO-K1 CXCR7 b-arrestin cell line, stably transfected)
T1 sequence (P25106 whole entry): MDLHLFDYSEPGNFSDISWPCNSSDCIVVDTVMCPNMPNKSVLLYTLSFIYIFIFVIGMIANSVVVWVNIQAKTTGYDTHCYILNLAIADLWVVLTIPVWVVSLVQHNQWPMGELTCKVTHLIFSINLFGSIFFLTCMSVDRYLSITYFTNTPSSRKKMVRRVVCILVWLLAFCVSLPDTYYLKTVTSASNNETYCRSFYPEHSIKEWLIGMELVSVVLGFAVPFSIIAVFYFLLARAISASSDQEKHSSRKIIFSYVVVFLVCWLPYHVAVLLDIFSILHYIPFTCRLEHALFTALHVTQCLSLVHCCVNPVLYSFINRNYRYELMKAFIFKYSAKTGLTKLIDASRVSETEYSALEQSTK
T1 sequence (P32121 whole entry partner): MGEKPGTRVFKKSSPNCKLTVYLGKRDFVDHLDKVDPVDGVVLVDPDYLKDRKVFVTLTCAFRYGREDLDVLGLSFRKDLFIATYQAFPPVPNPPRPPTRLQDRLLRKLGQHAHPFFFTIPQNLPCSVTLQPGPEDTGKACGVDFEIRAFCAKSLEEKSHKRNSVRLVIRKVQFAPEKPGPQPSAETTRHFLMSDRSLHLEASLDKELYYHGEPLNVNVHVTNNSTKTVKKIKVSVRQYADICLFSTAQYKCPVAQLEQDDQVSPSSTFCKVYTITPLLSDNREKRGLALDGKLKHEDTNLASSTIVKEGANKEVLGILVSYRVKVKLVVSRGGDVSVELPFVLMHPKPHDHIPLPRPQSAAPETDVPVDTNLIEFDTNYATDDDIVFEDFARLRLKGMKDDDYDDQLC
Put plainly: PathHunter CHO-K1 CXCR7 b-arrestin recruitment assay (CXCR7 agonistic activity). The class given is cell-based. The following applies: PathHunter CHO-K1 CXCR7 b-arrestin cell line. The gist of the method: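 Stable CHO-K1 line with C-terminally ProLink-tagged CXCR7 and β-arrestin 2–EA fusion; β-arrestin recruitment restores β-gal activity, read by chemiluminescence after 1 h RT detection. Cells seeded 24 h, starved in OPTIMEM 3–4 h, exposed to compounds 90 min at 37 °C in HBSS/HEPES/BSA. Geometric-mean EC50 from repeated measurements.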
In general terms: Recruitment of arrestin is a read-out of receptor activation apart from second messengers.
In turn, `CNCCN(Cc1ncccc1C(F)(F)F)C(=O)CNc1cccc2c1CCN(C(=O)OCC(C)C)C2` [compound 426] showed an EC50 of 0.074 µM.

Consider `O=C(CNc1cccc2c1CCN(CC1CC1)C2)N(CCN1CCOCC1)Cc1ccccc1C(F)(F)F` [Example 64, 2-(2-Cyclopropylmethyl-1,2,3,4-tetrahydro-isoquinolin-5-ylamino)-N-(2-morpholin-4-yl-ethyl)-N-(2-trifluoromethyl-benzyl)-acetamide], for which a half-maximal response (EC50) required 0.008 µM.

With `CCCOC(=O)N1CCc2c(cccc2NCC(=O)N(CCNC)Cc2ncccc2C(F)(F)F)C1` [compound 423], the concentration for a half-maximal effect (EC50) turned out to be 0.079 µM.

The compound `CN(C)CCN(Cc1ccccc1C(F)(F)F)C(=O)C1(Nc2cccc3c2CCN(CC2CC2)C3)CC1` [Example 292, 1-(2-Cyclopropylmethyl-1,2,3,4-tetrahydro-isoquinolin-5-ylamino)-cyclopropanecarboxylic acid (2-dimethylamino-ethyl)-(2-trifluoromethyl-benzyl)-amide] gave an EC50 of 0.103 µM.

In turn, `CCN1CCc2cccc(NCC(=O)N(CCN(C)C)Cc3cccc(C(F)(F)F)n3)c2C1` [compound 532, N-(2-Dimethylamino-ethyl)-2-(2-ethyl-1,2,3,4-tetrahydro-isoquinolin-8-ylamino)-N-(6-trifluoromethyl-pyridin-2-ylmethyl)-acetamide] showed an EC50 of 0.03 µM.

Compound `CCC(=O)N1CCc2c(cccc2NCC(=O)N(CCN(C)C)Cc2ccccc2OC)C1` [Example 28, N-(2-Dimethylamino-ethyl)-N-(2-methoxy-benzyl)-2-(2-propionyl-1,2,3,4-tetrahydro-isoquinolin-5-ylamino)-acetamide] displayed an EC50 of 0.063 µM.

In the case of `COCCN1CCc2c(/C=C/C(=O)N(Cc3ccccc3C(F)(F)F)CC(O)COC)cccc2C1` (stereo not shown) [Example 321, (E)-N-(2-Hydroxy-3-methoxy-propyl)-3-[2-(2-methoxy-ethyl}-1,2,3,4-tetrahydro-isoquinolin-5-yl]-N-(2-trifluoromethyl-benzyl)-acrylamide], it took 0.244 µM to reach a half-maximal effect (EC50).

Compound `CC(C)CCN(Cc1ccccc1)C(=O)CNc1cccc2c1CN(C)CC2` [compound 183] had an EC50 of 0.14 µM.

`CC(c1ccccc1C(F)(F)F)N(CCN(C)C)C(=O)CNc1cccc2c1CCN(CC1CC1)C2` (racemic) [Example 58, rac-2-(2-Cyclopropylmethyl-1,2,3,4-tetrahydro-isoquinolin-5-ylamino)-N-(2-dimethylamino-ethyl)-N-[1-(2-trifluoromethyl-phenyl)-ethyl]-acetamide] had an EC50 of 0.016 µM.

In turn, `O=C(CNc1cccc2c1CN(CC1CC1)CC2)N(CC(=O)N1CC(F)(F)C1)Cc1ncccc1C(F)(F)F` [compound 483, 2-(2-Cyclopropylmethyl-1,2,3,4-tetrahydro-isoquinolin-8-ylamino)-N-[2-(3,3-difluoro-azetidin-1-yl)-2-oxo-ethyl]-N-(3-trifluoromethyl-pyridin-2-ylmethyl)-acetamide] gave an EC50 of 0.033 µM.

Turning to `O=C(CNc1cccc2c1CCN(CC1CC1)C2)N(CCN1CCCC(F)(F)C1)Cc1ncccc1C(F)(F)F` [Example 283, 2-(2-Cyclopropylmethyl-1,2,3,4-tetrahydro-isoquinolin-5-ylamino)-N-[2-(3,3-difluoro-piperidin-1-yl)-ethyl]-N-(3-trifluoromethyl-pyridin-2-ylmethyl)-acetamide], the EC50 was 0.011 µM.

Regarding `CNCCN(Cc1ccccc1C(F)(F)F)C(=O)CNc1cccc2c1CCN(C(=O)C1CCOC1)C2` (racemic) [compound 392], the EC50 turned out to be 0.03 µM.

Regarding `O=C(CNc1cccc2c1CCN(CC1CC1)C2)N(CCNCC(F)(F)F)Cc1ccccc1C(F)(F)F` [Example 434, 2-(2-Cyclopropylmethyl-1,2,3,4-tetrahydro-isoquinolin-5-ylamino)-N-[2-(2,2,2-trifluoro-ethylamino)-ethyl]-N-(2-trifluoromethyl-benzyl)-acetamide], a half-maximal response (EC50) required 0.02 µM.

On to `CNCCN(Cc1ccccc1C(F)(F)F)C(=O)CNc1cccc2c1CN(CC1CC1)CC2` [compound 384, 2-(2-Cyclopropylmethyl-1,2,3,4-tetrahydro-isoquinolin-8-ylamino)-N-(2-methylamino-ethyl)-N-(2-trifluoromethyl-benzyl)-acetamide], for which the EC50 was found to be 0.004 µM.

Compound `O=C(CNc1cccc2c1CCN(CC1CC1)C2)N(CCN1CCCCC1)Cc1ccccc1C(F)(F)F` [Example 217, 2-(2-Cyclopropylmethyl-1,2,3,4-tetrahydro-isoquinolin-5-ylamino)-N-(2-piperidin-1-yl-ethyl)-N-(2-trifluoromethyl-benzyl)-acetamide] showed an EC50 of 0.002 µM.

`CS(=O)(=O)CCN(Cc1ccccc1C(F)(F)F)C(=O)CNc1cccc2c1CCN(CC1CC1)C2` [Example 229, 2-(2-Cyclopropylmethyl-1,2,3,4-tetrahydro-isoquinolin-5-ylamino)-N-(2-methanesulfonyl-ethyl)-N-(2-trifluoromethyl-benzyl)-acetamide]: the EC50 is 0.038 µM.

For `C=CCN1CCc2cccc(NCC(=O)N(CCN(C)C)Cc3ccccc3OC(F)(F)F)c2C1` [compound 464, 2-(2-Allyl-1,2,3,4-tetrahydro-isoquinolin-8-ylamino)-N-(2-dimethylamino-ethyl)-N-(2-trifluoromethoxy-benzyl)-acetamide], a half-maximal response (EC50) required 0.036 µM.

`CN(C)CCN(Cc1ccccc1)C(=O)CNc1cccc2c1CCN(CC(F)(F)F)C2` [Example 85, N-Benzyl-N-(2-dimethylamino-ethyl)-2-[2-(2,2,2-trifluoro-ethyl)-1,2,3,4-tetrahydro-isoquinolin-5-ylamino]-acetamide]: the EC50 was found to be 0.187 µM.

Compound `CCOC(=O)N1CCc2c(cccc2NCC(=O)N(CCNC)Cc2ncccc2C(F)(F)F)C1` [compound 420, 5-({[(2-Methylamino-ethyl)-(3-trifluoromethyl-pyridin-2-ylmethyl)-carbamoyl]-methyl}-amino)-3,4-dihydro-1H-isoquinoline-2-carboxylic acid ethyl ester] displayed an EC50 of 0.021 µM.

`COCCN1CCc2c(cccc2NCC(=O)N(CCN(C)CCF)Cc2ccccc2C(F)(F)F)C1` [Example 302, N-{2-[(2-Fluoro-ethyl)-methyl-amino]-ethyl}-2-[2-(2-methoxy-ethyl)-1,2,3,4-tetrahydro-isoquinolin-5-ylamino]-N-(2-trifluoromethyl-benzyl)-acetamide]: the midpoint of the response, the EC50, lay at 0.027 µM.

Take `CN(C)CCN(Cc1ccccc1C(F)(F)F)C(=O)CNc1cccc2c1CCN(C(=O)C(C)(F)F)C2` [Example 362, 2-[2-(2,2-Difluoro-propionyl)-1,2,3,4-tetrahydro-isoquinolin-5-ylamino]-N-(2-dimethylamino-ethyl)-N-(2-trifluoromethyl-benzyl)-acetamide]: the EC50 came to 0.021 µM.

Regarding `CN(C)CCN(Cc1ccccc1)C(=O)CNc1cccc2c1CN(C(=O)OC(C)(C)C)CC2` [Example 181, 8-({[Benzyl-(2-dimethylamino-ethyl)-carbamoyl]-methyl}-amino)-3,4-dihydro-1H-isoquinoline-2-carboxylic acid tert-butyl ester], the EC50 was found to be 0.117 µM.

As to `CN(C)CCN(Cc1ccccc1)C(=O)CNc1cccc2c1CN(Cc1ccccc1)CC2` [compound 193, N-Benzyl-2-(2-benzyl-1,2,3,4-tetrahydro-isoquinolin-8-ylamino)-N-(2-dimethylamino-ethyl)-acetamide], it took 0.048 µM to reach a half-maximal effect (EC50).

Compound `CC(C)(C)OC(=O)NCCN(Cc1ccccc1C(F)(F)F)C(=O)CNc1cccc2c1CCN(CC1CC1)C2` [Example 273, {2-[[2-(2-Cyclopropylmethyl-1,2,3,4-tetrahydro-isoquinolin-5-ylamino)-acetyl]-(2-trifluoromethyl-benzyl)-amino]-ethyl}-carbamic acid tert-butyl ester] showed an EC50 of 0.144 µM.

Take `CCC(=O)N1CCc2c(cccc2NCC(=O)N(CCN(C)C)Cc2cccc(F)c2)C1` [Example 21, N-(2-Dimethylamino-ethyl)-N-(3-fluoro-benzyl)-2-(2-propionyl-1,2,3,4-tetrahydro-isoquinolin-5-ylamino)-acetamide]: the EC50 is 0.039 µM.

In turn, `O=C1CCCN1CCN(Cc1ccccc1C(F)(F)F)C(=O)CNc1cccc2c1CCN(CC1CC1)C2` [Example 63, 2-(2-Cyclopropylmethyl-1,2,3,4-tetrahydro-isoquinolin-5-ylamino)-N-[2-(2-oxo-pyrrolidin-1-yl)-ethyl]-N-(2-trifluoromethyl-benzyl)-acetamide] showed an EC50 of 0.019 µM.

Compound `CN(C)CCN(Cc1ccccc1C(F)(F)F)C(=O)CNc1cccc2c1CCN(C(=O)C1(C(F)(F)F)CC1)C2` [Example 571, N-(2-Dimethylamino-ethyl)-N-(2-trifluoromethyl-benzyl)-2-[2-(1-trifluoromethyl-cyclopropanecarbonyl)-1,2,3,4-tetrahydro-isoquinolin-5-ylamino]-acetamide] had an EC50 of 0.086 µM.

`CCN1CCc2cccc(NCC(=O)N(Cc3ccccc3C(F)(F)F)C(C)c3ccn(CC)n3)c2C1` (racemic) [compound 521]: the midpoint of the response, the EC50, lay at 0.269 µM.

Consider `COC(=O)CN1CCc2c(cccc2NCC(=O)N(CCN(C)C)Cc2ncccc2C(F)(F)F)C1` [Example 370, [5-({[(2-Dimethylamino-ethyl)-(3-trifluoromethyl-pyridin-2-ylmethyl)-carbamoyl]-methyl}-amino)-3,4-dihydro-1H-isoquinolin-2-yl]-acetic acid methyl ester], for which a half-maximal response (EC50) required 0.04 µM.

Regarding `O=C(CNc1cccc2c1CCN(CC1CC1)C2)N(Cc1ccccc1)C1CCS(=O)(=O)C1` (racemic) [Example 70, rac-N-Benzyl-2-(2-cyclopropylmethyl-1,2,3,4-tetrahydro-isoquinolin-5-ylamino)-N-(1,1-dioxo-tetrahydro-1|6-thiophen-3-yl)-acetamide], the response was half-maximal at 0.189 µM (EC50).

In turn, `CCNCCN(Cc1ccccc1C(F)(F)F)C(=O)CNc1cccc2c1CCN(CC1CC1)C2` [compound 439, 2-(2-Cyclopropylmethyl-1,2,3,4-tetrahydro-isoquinolin-5-ylamino)-N-(2-ethylamino-ethyl)-N-(2-trifluoromethyl-benzyl)-acetamide] registered an EC50 of 0.003 µM.

The term EC50 denotes the concentration at which the effect is half-maximal. Read a low EC50 as higher potency in that assay.
